Where “and” joins values, the source holds several entries; their conditions need not be identical. Equal entries are not always repeated.
Key:
[1] = biological target: T1, TXK (Homo sapiens, UniProt P42681); details: cited from earlier work
T1 construct: host or cells: HEK296T (so in the source)
T1 sequence (P42681 1-527): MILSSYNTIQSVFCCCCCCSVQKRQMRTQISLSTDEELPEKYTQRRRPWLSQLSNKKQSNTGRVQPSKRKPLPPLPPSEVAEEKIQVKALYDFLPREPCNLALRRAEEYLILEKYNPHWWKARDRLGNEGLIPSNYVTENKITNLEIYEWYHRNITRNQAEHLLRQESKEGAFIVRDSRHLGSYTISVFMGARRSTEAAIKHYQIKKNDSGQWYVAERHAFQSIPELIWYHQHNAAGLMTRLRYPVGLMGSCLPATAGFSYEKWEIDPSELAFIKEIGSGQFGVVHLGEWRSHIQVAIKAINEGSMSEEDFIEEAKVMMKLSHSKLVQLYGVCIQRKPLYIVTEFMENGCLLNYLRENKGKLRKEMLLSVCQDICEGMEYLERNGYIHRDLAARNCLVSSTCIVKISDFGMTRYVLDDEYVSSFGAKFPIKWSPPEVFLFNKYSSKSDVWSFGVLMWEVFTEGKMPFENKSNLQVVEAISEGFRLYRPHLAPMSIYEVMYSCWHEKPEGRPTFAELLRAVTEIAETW

[2] = biological target: BLK (Homo sapiens, UniProt P51451); details: cited from earlier work
Chain of BLK (P51451 whole entry): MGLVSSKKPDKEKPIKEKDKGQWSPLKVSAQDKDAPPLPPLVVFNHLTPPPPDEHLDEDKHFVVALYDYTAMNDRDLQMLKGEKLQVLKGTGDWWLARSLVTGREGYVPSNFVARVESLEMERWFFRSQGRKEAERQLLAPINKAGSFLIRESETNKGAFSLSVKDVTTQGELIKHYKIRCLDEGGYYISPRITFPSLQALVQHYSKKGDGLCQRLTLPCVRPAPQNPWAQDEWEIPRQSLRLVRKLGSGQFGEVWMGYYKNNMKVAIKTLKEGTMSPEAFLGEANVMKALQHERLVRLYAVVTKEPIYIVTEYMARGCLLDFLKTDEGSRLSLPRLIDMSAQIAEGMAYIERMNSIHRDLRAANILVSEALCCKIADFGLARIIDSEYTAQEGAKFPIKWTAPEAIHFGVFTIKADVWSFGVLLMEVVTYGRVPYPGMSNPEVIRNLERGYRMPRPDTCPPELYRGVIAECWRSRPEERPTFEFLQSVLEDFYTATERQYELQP

[3] = biological target: T2, EGFR (Homo sapiens, UniProt P00533); details: cited from earlier work
T2 construct: host or cells: HEK296T (so in the source)
T2 sequence (P00533 25-1210): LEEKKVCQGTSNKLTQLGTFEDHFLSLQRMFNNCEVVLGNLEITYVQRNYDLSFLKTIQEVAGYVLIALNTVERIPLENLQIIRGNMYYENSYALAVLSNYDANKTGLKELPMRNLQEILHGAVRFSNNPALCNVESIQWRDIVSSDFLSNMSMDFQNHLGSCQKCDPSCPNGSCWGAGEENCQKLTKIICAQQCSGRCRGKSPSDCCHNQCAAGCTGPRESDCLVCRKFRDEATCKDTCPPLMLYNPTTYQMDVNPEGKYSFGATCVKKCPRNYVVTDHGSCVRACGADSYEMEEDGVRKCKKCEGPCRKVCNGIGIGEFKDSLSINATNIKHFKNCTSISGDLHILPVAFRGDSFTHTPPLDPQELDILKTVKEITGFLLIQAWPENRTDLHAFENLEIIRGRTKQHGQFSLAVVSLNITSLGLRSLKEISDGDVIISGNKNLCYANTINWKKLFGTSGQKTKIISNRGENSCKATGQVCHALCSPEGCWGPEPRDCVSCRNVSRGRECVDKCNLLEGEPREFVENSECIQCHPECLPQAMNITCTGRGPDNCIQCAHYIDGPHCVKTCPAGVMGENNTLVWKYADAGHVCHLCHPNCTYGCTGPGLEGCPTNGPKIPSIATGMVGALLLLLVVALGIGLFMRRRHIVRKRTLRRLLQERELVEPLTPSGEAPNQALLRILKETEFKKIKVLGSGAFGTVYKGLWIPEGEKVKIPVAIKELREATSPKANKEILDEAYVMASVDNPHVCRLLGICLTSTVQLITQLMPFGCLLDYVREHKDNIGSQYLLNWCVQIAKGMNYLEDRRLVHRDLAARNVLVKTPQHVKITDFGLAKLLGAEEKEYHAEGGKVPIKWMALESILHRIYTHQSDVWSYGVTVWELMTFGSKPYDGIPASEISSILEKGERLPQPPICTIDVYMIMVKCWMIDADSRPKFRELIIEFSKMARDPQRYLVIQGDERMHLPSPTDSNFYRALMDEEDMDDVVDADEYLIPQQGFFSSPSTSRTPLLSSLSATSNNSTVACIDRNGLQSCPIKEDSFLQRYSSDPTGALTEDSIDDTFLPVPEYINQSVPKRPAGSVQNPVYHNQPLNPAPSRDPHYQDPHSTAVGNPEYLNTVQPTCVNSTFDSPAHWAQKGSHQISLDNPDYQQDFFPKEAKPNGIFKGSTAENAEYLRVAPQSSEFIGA

[4] = biological target: T3, TEC (Homo sapiens, UniProt P42680); details: 1 µM inhibition screening; ref SI 8–10; cited from earlier work
T3 construct: host or cells: HEK296T (so in the source)
T3 sequence (P42680 1-631): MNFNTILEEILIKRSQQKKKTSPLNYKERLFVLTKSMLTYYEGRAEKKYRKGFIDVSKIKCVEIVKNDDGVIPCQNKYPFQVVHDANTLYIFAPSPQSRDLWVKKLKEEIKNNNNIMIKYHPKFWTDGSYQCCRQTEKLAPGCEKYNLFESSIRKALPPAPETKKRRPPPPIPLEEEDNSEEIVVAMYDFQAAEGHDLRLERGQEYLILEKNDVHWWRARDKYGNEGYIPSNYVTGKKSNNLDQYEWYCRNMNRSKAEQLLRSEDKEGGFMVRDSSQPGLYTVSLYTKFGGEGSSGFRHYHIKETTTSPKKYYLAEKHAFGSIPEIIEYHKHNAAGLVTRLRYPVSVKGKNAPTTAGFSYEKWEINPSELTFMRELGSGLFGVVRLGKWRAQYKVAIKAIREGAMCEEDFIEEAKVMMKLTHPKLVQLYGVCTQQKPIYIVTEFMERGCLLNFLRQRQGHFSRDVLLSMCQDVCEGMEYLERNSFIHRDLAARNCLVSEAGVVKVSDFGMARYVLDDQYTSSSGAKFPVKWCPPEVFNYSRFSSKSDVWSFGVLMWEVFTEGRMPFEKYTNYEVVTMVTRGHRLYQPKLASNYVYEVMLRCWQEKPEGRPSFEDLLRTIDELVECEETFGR

[5] = system: Her2; details: read-out: IC50, Her2; Table S3 heat map; ref SI 1-19; cited from earlier work
[6] = biological target: BTK (Homo sapiens, UniProt Q06187); set-up: purchased Promega Corporation V2941; details: Table S3 heat map; ref SI 1-19; read-out: IC50, BTK; cited from earlier work
Chain of BTK (Q06187 whole entry): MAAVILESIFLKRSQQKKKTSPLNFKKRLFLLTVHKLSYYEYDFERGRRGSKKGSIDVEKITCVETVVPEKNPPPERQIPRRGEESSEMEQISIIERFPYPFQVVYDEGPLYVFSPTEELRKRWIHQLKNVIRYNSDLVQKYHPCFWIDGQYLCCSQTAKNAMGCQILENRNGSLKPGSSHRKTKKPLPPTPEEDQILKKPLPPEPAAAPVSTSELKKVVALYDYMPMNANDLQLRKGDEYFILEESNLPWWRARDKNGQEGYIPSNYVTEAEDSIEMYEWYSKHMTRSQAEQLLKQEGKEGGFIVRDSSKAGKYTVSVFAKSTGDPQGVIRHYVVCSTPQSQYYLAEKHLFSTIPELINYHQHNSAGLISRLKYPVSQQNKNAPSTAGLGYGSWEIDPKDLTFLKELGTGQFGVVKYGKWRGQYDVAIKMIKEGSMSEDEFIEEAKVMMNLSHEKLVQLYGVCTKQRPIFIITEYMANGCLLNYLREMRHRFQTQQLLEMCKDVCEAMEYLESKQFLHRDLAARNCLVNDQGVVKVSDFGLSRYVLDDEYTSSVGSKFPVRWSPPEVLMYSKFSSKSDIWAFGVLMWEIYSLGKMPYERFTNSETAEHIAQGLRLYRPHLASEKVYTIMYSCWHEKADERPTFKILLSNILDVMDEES

[7] = system: MOLM-13 cells (AML); test: Cell viability assay (CellTiter-Glo), MOLM-13; format: cell-based; details: Homo sapiens, 72 h, n = 3
Procedure: (§1) All cell lines were purchased from ATCC, except for DoHH-2 cells that were obtained from DSMZ. Cells were cultivated in complete DMEM supplemented with 10% (vol/vol) FBS (Gibco) and 1% of penicillin/streptomycin (Gibco). The cells were grown in a humidified atmosphere of 5% CO2 at 37°C, with the medium changed every other day.
(§2) Cells were inoculated at a density of 5000 cells/well. Serially diluted compounds (starting at 50 μM) were added 24 h later. The assay was performed in triplicates. After 72 h of incubation, cellular viability was assessed by CellTiter-Glo (Promega) according to the manufacturer’s instructions. The values were normalized with the vehicle (DMSO), and the IC50 was calculated using GraphPad Prism 8.

[8] = system: HBEC-5i cell model; test: In vitro blood–brain barrier permeability (translocation), HBEC-5i cell model; format: in vitro ADME, human; details: Translocation 24 h, compound 15 μM
Procedure: Human cerebral microvascular endothelial cells (HBEC-5i) were cultured as a monolayer on attachment factor protein solution (AF)-coated T-flasks (Gibco), using DMEM/F12 medium (Gibco), supplemented with 10% FBS, 1% penicillin/streptomycin, and 40.0 μg/mL endothelial cell growth supplement (ECGS, Sigma), according to the manufacturer’s instructions. The capacity of the compounds to cross the brain–blood barrier (BBB) was evaluated using an in vitro HBEC-5i cell model, as previously described.[29] Samples from the apical and basolateral sides were collected, and fluorescence intensity was measured using a Varioskan LUX multimode microplate reader. The retention was considered the difference between the initial fluorescence of compounds (100%) and the aggregated apical and basolateral fluorescence.

[9] = system: Raji cells; test: Mice xenograft model of Burkitt’s lymphoma (subcutaneous Raji cells); format: in vivo
Procedure: Female adult BALB/c/NSG mice were injected subcutaneously with 1 × 10^6 Raji cells, in a 1:1 solution of Matrigel Matrix (Corning) to create solid tumors. When tumors reached 180 mm^3 on average, mice were randomized into four groups (n = 6/group), and dosing began every 2 days. […] Tumor size and body weight were monitored periodically for 12 days. At the end of the experiment, mice necropsies were performed. Stereological analysis was conducted by the Histopathology Unit at Instituto Gulbenkian de Ciência and by the Comparative Pathology Unit at Instituto de Medicina Molecular João Lobo Antunes. Quantification of metastases and cell necrosis was performed in all groups (n = 5/group). Statistical analysis was conducted using one-way ANOVA. The Dunnet test was used to analyze the statistical significance between the treatment groups and the control.

[10] = system: Raji cells (BL); test: Cell viability assay (CellTiter-Glo), Raji; format: cell-based; details: Homo sapiens, 72 h, n = 3
Procedure: as §1, §2

[11] = system: DoHH-2 cells (DLBCL); test: Cell viability assay (CellTiter-Glo), DoHH-2; format: cell-based; details: Homo sapiens, 72 h, n = 3
Procedure: as §1, §2

[12] = system: HL-60 cells (APML); test: Cell viability assay (CellTiter-Glo), HL-60; format: cell-based; details: Homo sapiens, 72 h, n = 3
Procedure: as §1, §2

[13] = system: PBMCs from CLL patients; test: Zebrafish patient-derived xenografts of chronic lymphocytic leukemia; format: in vivo; details: all zPDXs, 48 h of treatment
Procedure: Whole blood (3–6 mL) from CLL patients (Supporting Table S1) was collected, and PBMCs were purified by Ficoll-Paque PLUS (GE Healthcare) density centrifugation.
The collected PBMCs were resuspended in RPMI (Biowest) with 3 times their volume and centrifuged at 1400 rpm, 4 °C, for 7 min. Cell pellets were resuspended in DPBS 1× (Biowest) supplemented with universal nuclease at 25 U/mL (Thermo Scientific). Concentration was normalized to […] for zebrafish patient-derived xenograft (zPDX) generation. Prior to drug efficacy analysis in zebrafish, the cells were distributed to proceed for flow cytometry, to determine the percentage of CD19+CD5+ cells within the CD45+ population, from PBMCs of each CLL patient. The maximum tolerated concentration was also determined for each compound in noninjected zebrafish larvae (Supporting Figure S1).
Zebrafish larvae were anesthetized with Tricaine 1×, and thawed PBMCs were microinjected into the perivitelline space of anesthetized zebrafish larvae at 48 h post fertilization. […] At the end of the assay, 4 days post injection, zebrafish xenografts were sacrificed with an overdose of Tricaine 25× and fixed in 4% formaldehyde (Thermo Scientific) overnight, followed by storage in 100% methanol (VWR) at −20 °C.
The whole mount immunofluorescence protocol was started by rehydrating the xenografts through methanol series (75% > 50% > 25% in PBS 1×-Triton 0.1%). Next, the xenografts were permeabilized in PBS 1× with 0.1% (v/v) Triton and incubated in a blocking solution (containing 1% BSA and 1.5% goat serum) for 1 h at room temperature. The xenografts were incubated with the primary antibodies (anti-cleaved caspase 3—Cell Signaling Technology, clone Asp175, 9661, 1:100; anti-human mitochondria—Merck Millipore, clone 113-1, MAB1273, 1:50) diluted in the blocking solution overnight at 4 °C, followed by additional overnight incubation with 1:400 of secondary antibodies: Alexa goat anti-rabbit 594 (35560, Thermo Scientific) and Alexa goat anti-mouse 647 (84545, Thermo Scientific), and nuclei counterstaining with DAPI at 50 μg/mL (Sigma-Aldrich).
All images were obtained using a Zeiss LSM 980 Upright confocal laser scanning microscope. Xenografts were mounted in in-house Mowiol mounting media, and sequential images along tumor’s depth (from cloaca until the end of the tail) with a 5 μm interval were acquired using the z-stack function. […] For tumor burden, the area occupied by the PBMCs in each slice of the z-stack pile was determined by ImageJ software and summed up to obtain the tumor burden per xenograft. […]
Statistical analysis was performed using GraphPad Prism 8. […] A Gaussian distribution was only assumed for data sets that pass both normality tests and were analyzed by an unpaired t-test with Welch’s correction. […]

[14] = 1 µM inhibition screening, ref SI 8–10
[15] = 10 mg/kg, average of 5 animals, stereological analysis
[16] = 10 mg/kg, individual animals #1 to #5 in order

Structure (SMILES): C=CC(=O)N1CCC(CNc2ncnc(N)c2-c2ccc(Oc3ccccc3)cc2)CC1 [Evobrutinib, evobrutinib]
- inhibition, TXK [1, 14]: 36%
- inhibition, BLK [2, 14]: 36%
- inhibition, EGFR [3, 14]: 0%
- inhibition, TEC [4]: 82%

Structure (SMILES): CC#CC(=O)N1CC[C@@H](n2c(=O)n(-c3ccc(Oc4ccccc4)cc3)c3c(N)ncnc32)C1 [Tirabrutinib, tirabrutinib]
- IC50 ([1]; Table S3 heat map, ref SI 1-19): 92 nM
- IC50 ([2]; read-out: IC50, BLK, Table S3 heat map, ref SI 1-19): 300 nM
- IC50 [5]: 7310 nM

Structure (SMILES): NC(=O)[C@H]1CCN(c2ncnc(N)c2F)C[C@@H]1N1CCC[C@@H](Nc2cc(Cl)cc(C(F)(F)F)c2)C1=O [Vecabrutinib]
- IC50 ([3]; Table S3 heat map, ref SI 1-19): > 6000 nM
- IC50 [6]: 3 nM

Structure (SMILES): C=CC(=O)N1CCC([C@@H]2CCNc3c(C(N)=O)c(-c4ccc(Oc5ccccc5)cc4)nn32)CC1 [Zanubrutinib, zanubrutinib]
- IC50 [5]: 661 nM

Structure (SMILES): CC#CC(=O)N1CCC[C@H]1c1nc(-c2ccc(C(=O)Nc3ccccn3)cc2)c2c(N)nccn12 [acalabrutinib]
- IC50 [7]: 28400 ± 30 nM
- % Fluorescence, Basolateral side (permeability to the BBB) [8]: 29.2%

Structure (SMILES): C=CC(=O)N1CCC[C@@H](n2nc(-c3ccc(Oc4ccccc4)cc3)c3c(N)ncnc32)C1 [ibrutinib, reference compound]
- reduction in percentage of metastases ([9]; 10 mg/kg i.p. every 2 days, n = 5/group): around 30%
- Metastasis volume, Brain, Average [9, 15]: 0.78 mm³
- Metastasis volume, Liver, Average [9, 15]: 4.73 mm³
- Metastasis volume, Lung, Average [9, 15]: 26.92 mm³
- Metastasis volume, Spinal, Average [9, 15]: 51.37 mm³
- Secondary tumour, Average [9, 15]: 64.21 mm³
- Metastasis volume, Brain, single animals [9, 16]: 0.86 mm³ and 0.82 mm³ and 0.00 mm³ and 1.72 mm³ and 0.48 mm³
- Metastasis volume, Liver, single animals [9, 16]: 12.05 mm³ and 11.54 mm³ and 0.03 mm³ and 0.00 mm³ (2×)
- Metastasis volume, Lung, single animals [9, 16]: 134.59 mm³ and 0.00 mm³ (4×)
- Metastasis volume, Spinal, single animals [9, 16]: 55.71 mm³ and 86.64 mm³ and 4.378 mm³ and 10.76 mm³ and 99.35 mm³
- Secondary tumour, single animals [9, 16]: 96.59 mm³ and 0.00 mm³ (3×) and 224.46 mm³
- IC50 [10]: 36200 ± 310 nM
- IC50 [11]: ~70 nM
- IC50 [12]: 7740 ± 30 nM
- IC50 [7]: ~460 nM
- % Fluorescence, Basolateral side (permeability to the BBB) [8]: 51.9%

Structure (SMILES): CC1(C)CCC(CN2CCN(c3ccc(C(=O)NS(=O)(=O)c4ccc(NCC5CCOCC5)c([N+](=O)[O-])c4)c(Oc4cnc5[nH]ccc5c4)c3)CC2)=C(c2ccc(Cl)cc2)C1 [venetoclax, reference compound]
- effect on tumor incidence and burden [13]: major impact on tumor incidence and burden

— article PMC9667546, “Selective Inhibition of Bruton’s Tyrosine Kinase by a Designed Covalent Ligand Leads to Potent Therapeutic Efficacy in Blood Cancers Relative to Clinically Used Inhibitors” (ACS Pharmacology & Translational Science, 2022)
